This note sets out measurements from paper PMC6770006, “Novel Heat Shock Protein 90 Inhibitors Suppress P-Glycoprotein Activity and Overcome Multidrug Resistance in Cancer Cells” (International Journal of Molecular Sciences, 2019).

The test system of one assay is NCI-H460/R cells. The assay can be described thus: Combined treatment of compound 5 with DOX, MTT, median effect analysis. It is filed as cell-based, human. Particulars: for Relative Reversal: DOX resistance; for IC50: Homo sapiens, NCI-H460, 72 h. How it is done: (§1) The combined effects of compound 5 with DOX as well as with PTX were studied in NCI-H460/R and DLD1-TxR cells, respectively, by MTT assay. In simultaneous treatments that lasted 72 h in NCI-H460/R cells, three concentrations of compound 5 (2.5, 5, and 10 µM) were combined with increasing concentrations of DOX (250, 500 and 1000 nM), while in DLD1-TxR cells different concentrations of compound 5 (1, 2.5, and 5 µM) were combined with increasing concentrations of PTX (100, 250 and 500 nM). The nature of the interaction between Hsp90 inhibitors and DOX/PTX was analyzed with CalcuSyn software v1.1 (Biosoft, Cambridge, UK) that uses the Combination Index method based on the multiple drug effect equation [54]. Three data points were used for each single drug in each experiment. The non-constant ratio combination was chosen to assess the effect of both drugs in combination. The results are presented in a fraction-affected CI graph. Values of CI < 1 point to a pronounced additive effect or synergism (the smaller value, the greater the degree of synergy). A value of CI = 1 indicates an additive effect, while values of CI > 1 point to an antagonistic effect.

Another assay has as its system DLD1-TxR cells. The assay is described as follows: Combined treatment of compound 5 with PTX, MTT, median effect analysis. Type of assay: cell-based, human. Particulars: PTX resistance. Here is the method: as §1

A word on the IC50: it is the midpoint of a concentration-inhibition curve. For the compound `O=C1c2ccccc2C(=O)c2c(-c3ccccc3O)noc21` [Compound 5], the “Relative Reversal” value with NCI-H460/R cells (2.5 µM compound 5) turned out to be 1.31; in the assay with NCI-H460/R cells (5 µM compound 5) it was 2.62; with NCI-H460/R cells (10 µM compound 5), 5.28; in the assay on DLD1-TxR cells (1 µM compound 5) it was 1.80; with DLD1-TxR cells (2.5 µM compound 5), 2.60; with DLD1-TxR cells (5 µM compound 5), 5.27. Further, the half-maximal inhibitory concentration (IC50) was 1730 ± 30.9 nM in the assay with NCI-H460/R cells (DOX + 2.5 µM compound 5, 72 h); 864 ± 25.6 nM in the assay with NCI-H460/R cells (DOX + 5 µM compound 5, 72 h); 429 ± 13.3 nM in the assay with NCI-H460/R cells (DOX + 10 µM compound 5, 72 h).
